Assay results from US20240391923A1, “METHIONINE ADENOSYLTRANSFERASE 2A INHIBITOR FOR TREATING MTAP DELETION-TYPE CANCER” (SUZHOU GENHOUSE BIO CO., LTD., priority 2022, published 2024).
Read-outs that look alike come from different tables or passages of the source.

Key:
[1] = tested on: SDMA in human colon cancer cell line HCT116; assay: Cell symmetric dimethylarginine (SDMA) test, In-cell Western, HCT116 (MTAP wild-type); assay type: cell-based; conditions: Homo sapiens, HCT-116, 96 h
Method in brief: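 SDMA level, an indirect readout of cellular MAT2A inhibition, measured by In-cell Western as background-subtracted 800/700 nm signal against DRAQ5. Cells exposed 4 days to six 1:4-diluted doses from 6 μM; inhibition relative to DMSO, IC50 from sigmoidal fit.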

[2] = tested on: HCT116-MTAP-knockout (−/−) cell strain; assay: Tumor cell proliferation inhibition assay (CellTiter-Glo), HCT116-MTAP-knockout (-/-); assay type: cell-based; conditions: Homo sapiens, 120 h, 5-day treatment
Method in brief: (§1)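 Read-out: CellTiter-Glo ATP luminescence after 5-day compound exposure at 37° C./5% CO2. Dosing began 24 h post-seeding, 10 μM top, 1:3 dilutions, 10 points; DMSO-treated cells as reference.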

DOHH-2 cell strain = assay: Tumor cell proliferation inhibition assay (CellTiter-Glo), DOHH-2; assay type: cell-based; conditions: Homo sapiens, 120 h, DOHH-2 cells, 5-day treatment
Method: After the HCT116-MTAP-knockout (−/−) cell strain, the HCT116-MTAP wild-type(+/+)-cell strain, the DOHH-2 cell strain, or the Hut-78 cell strain was treated with the test compound for 5 days, the ATP level was measured using a CellTiter-Glo kit of Promega to evaluate the inhibition of the test compound against the growth of the tumor cell strain.
In the present application, the HCT116-MTAP-knockout (−/−) cell strain, the HCT116-MTAP wild-type (+/+)-cell strain, the DOHH-2 cell strain, or the Hut-78 cell strain was seeded into a 96-well cell culture plate at an appropriate cell density. After 24 h, the cells were treated using the test compounds diluted 1:3 fold at the highest concentration of 10 μM for 10 gradients, and a DMSO treatment group was set up separately. The cells were cultured in a 37° C./5% CO2 incubator for 5 days.

[3] = tested on: SDMA in HCT116-MTAP-knockout cell line; assay: Cell symmetric dimethylarginine (SDMA) test, In-cell Western, HCT116-MTAP-knockout; assay type: cell-based; conditions: Homo sapiens, 96 h
[4] = Pharmacokinetic test in rats (IV and PO); assay type: in vivo; conditions: rat, plasma, SD rats; for half-life: read-out: T½ (converted)
[5] = target: MAT2A recombinant protein (Homo sapiens, UniProt P31153); assay: MAT2A inhibitory activity (malachite green colorimetric enzyme assay); assay type: biochemical
Sequence of MAT2A recombinant protein (P31153 whole entry): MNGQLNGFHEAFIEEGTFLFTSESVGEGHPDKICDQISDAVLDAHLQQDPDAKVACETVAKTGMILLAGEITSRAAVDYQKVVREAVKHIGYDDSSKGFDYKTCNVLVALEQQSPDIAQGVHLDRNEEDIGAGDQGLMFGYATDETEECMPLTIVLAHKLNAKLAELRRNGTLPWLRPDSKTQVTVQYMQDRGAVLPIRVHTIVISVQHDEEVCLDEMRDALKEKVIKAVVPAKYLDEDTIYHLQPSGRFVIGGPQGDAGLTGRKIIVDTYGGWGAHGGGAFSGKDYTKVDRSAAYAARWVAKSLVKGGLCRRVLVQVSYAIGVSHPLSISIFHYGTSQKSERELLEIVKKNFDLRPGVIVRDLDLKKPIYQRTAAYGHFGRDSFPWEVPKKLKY
Method in brief: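 Compounds tested over 10 points, 3-fold dilutions, top final concentration 1000 nM. Enzyme reaction: MAT2A, L-methionine, ATP, room temperature, 60 min, in HEPES pH 7.5 buffer with KCl, MgCl2 and DTT; inorganic phosphate read colorimetrically (malachite green, A630). Inhibition vs log concentration fitted for IC50.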

[6] = tested on: HCT116-MTAP wild-type (+/+)-cell strain; assay: Tumor cell proliferation inhibition assay (CellTiter-Glo), HCT116-MTAP wild-type (+/+); assay type: cell-based; conditions: Homo sapiens, 120 h, 5-day treatment
Method in brief: as §1

Hut-78 cell strain = assay: Tumor cell proliferation inhibition assay (CellTiter-Glo), Hut-78; assay type: cell-based; conditions: Homo sapiens, HuT78, 120 h, Hut-78 cells, 5-day treatment
Method in brief: as §1

[7] = Pharmacokinetic test in mice (IV and PO); assay type: in vivo; conditions: mouse, plasma, BALB/c mice; for half-life: read-out: T½ (converted)
hERG potassium current = target: T1, hERG potassium current (Homo sapiens, UniProt Q12809); assay: hERG inhibition test (whole-cell patch clamp, Qpatch); assay type: cell-based; conditions: initial concentration 30 μM, 6 concentration points
T1 construct: expressed in transfected cells; host or cells: HEK293, cultured under G418 selection
T1 sequence (Q12809 whole entry): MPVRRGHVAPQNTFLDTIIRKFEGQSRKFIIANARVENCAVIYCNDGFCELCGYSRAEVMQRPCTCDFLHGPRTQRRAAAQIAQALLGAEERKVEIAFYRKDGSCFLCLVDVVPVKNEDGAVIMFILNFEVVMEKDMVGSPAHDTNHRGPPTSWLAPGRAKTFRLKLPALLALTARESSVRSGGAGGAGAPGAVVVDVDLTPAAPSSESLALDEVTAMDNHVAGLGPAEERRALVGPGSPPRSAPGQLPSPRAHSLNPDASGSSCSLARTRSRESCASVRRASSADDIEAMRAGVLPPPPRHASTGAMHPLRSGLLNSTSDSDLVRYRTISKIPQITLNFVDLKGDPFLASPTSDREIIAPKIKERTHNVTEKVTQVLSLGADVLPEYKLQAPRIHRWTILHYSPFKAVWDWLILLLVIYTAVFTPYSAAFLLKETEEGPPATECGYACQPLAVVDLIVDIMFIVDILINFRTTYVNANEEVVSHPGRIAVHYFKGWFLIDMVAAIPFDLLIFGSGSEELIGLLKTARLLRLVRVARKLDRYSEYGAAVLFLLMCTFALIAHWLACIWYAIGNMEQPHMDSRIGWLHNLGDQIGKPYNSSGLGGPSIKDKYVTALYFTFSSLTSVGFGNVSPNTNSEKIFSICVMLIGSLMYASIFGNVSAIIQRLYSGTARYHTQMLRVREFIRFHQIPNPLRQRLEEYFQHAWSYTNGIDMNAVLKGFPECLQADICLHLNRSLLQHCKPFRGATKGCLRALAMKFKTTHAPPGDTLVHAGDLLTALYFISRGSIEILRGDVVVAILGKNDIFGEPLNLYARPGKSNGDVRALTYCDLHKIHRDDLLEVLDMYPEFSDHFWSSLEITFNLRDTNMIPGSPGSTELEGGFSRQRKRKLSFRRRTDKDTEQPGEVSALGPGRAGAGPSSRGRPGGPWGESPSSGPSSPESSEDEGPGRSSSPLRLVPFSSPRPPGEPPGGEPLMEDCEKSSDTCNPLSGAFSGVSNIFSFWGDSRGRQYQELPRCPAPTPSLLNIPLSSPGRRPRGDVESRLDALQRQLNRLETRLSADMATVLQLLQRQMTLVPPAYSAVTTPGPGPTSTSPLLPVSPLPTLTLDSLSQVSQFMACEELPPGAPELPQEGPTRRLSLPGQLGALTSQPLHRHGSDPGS
Method: The BEK293 cells were cultured in a DiVEM medium containing […] and 0.8 mg/mL G418 at 37° C. with 5% o CO2. The cells were digested by TrypLE™ Express and centrifuged. The cell density was adjusted to 2×10^6 cells/mL. The cells were gently mixed for 15-20 min using a shaker equilibrated at room temperature, and subjected to patch clamping on a machine. The medium of the prepared cells was replaced with extracellular fluid. The intracellular fluid and the extracellular fluid were taken from the fluid pool, and respectively added to the intracellular fluid pool and the cell and the test substance pool of the QPlate chip. The voltage stimulation of the whole-cell hERG potassium current was recorded by the whole-cell patch clamp, and the test data was collected and stored by Qpatch. The compound was diluted 3-fold at an initial concentration of 30 μM, and 6 concentration points were set, with each drug concentration being set for two administrations over a period of at least 5 min. The current detected in compound-free extracellular fluid for each cell was served as its own control group, and the detection was repeated at least twice independently using two cells per concentration. All electrophysiological experiments were performed at room temperature.
For data analysis, the current acted for each drug concentration and the current of the blank control were standardized
and then the inhibition rate corresponding to each drug concentration was calculated
The mean and standard error were calculated for each concentration, and the half maximal inhibitory concentration of each compound was calculated:
The dose-dependent effect was fitted non-linearly using the above equation, wherein Y represents the inhibition rate, C represents the concentration of the test substance, IC50 is the half maximal inhibitory concentration, and HillSlope represents the Hill coefficient. Curve fitting and calculation of IC50 were performed by Graphpad software.

[8] = Saturation solubility of samples in FaSSIF solution; assay type: physicochemical; conditions: FaSSIF pH 6.5, room temperature overnight
Method: About 0.21 g of sodium hydroxide, about 2.24 g of sodium dihydrogen phosphate dihydrate, and 3.09 g of sodium chloride were weighed out and dissolved in 500 mL of water, and then the pH was adjusted to 6.5 with 1 N sodium hydroxide or 1 N hydrochloric acid. 112 mg of FaSSIF solid was weighed out and placed in a 50 mL volumetric flask, and the above buffer was added for dissolution, diluted to volume, mixed well, and left to stand at room temperature for 2 h or more.
• Test sample: about 1 mg of the test sample was taken, and 1 mL of FaSSIF solution was added. The mixture was stirred at room temperature overnight and centrifuged, and the supernatant was collected and injected for analysis. • Control substance solution: about 1.5 mg of the test sample was precisely weighed out and placed in a 50 mL volumetric flask, and DMF was added for dissolution, diluted to volume, and mixed well.
• Mobile phase A: 1000 mL of purified water was accurately weighed out, 1 mL of formic acid was added, and the mixture was mixed well and degassed with ultrasonic. • Mobile phase B: acetonitrile
The peak of the main component of the control substance and the peak of the test substance consistent with the retention time of the peak of the main component of the control substance were integrated, and the concentration thereof in the FaSSIF solution was calculated according to external standard method.

[9] = IC50 score class, read-out: Cell 96 h SDMA Inhibition (HCT116-MTAP+/+) (score)
[10] = read-out: Cell 96 h SDMA inhibition (HCT116-MTAP+/+)
[11] = HCT116-MTAP-knockout (−/−) cells, IC50 score, read-out: Tumor cell 5-day relative growth inhibition (HCT116-MTAP−/−) (nM), score
[12] = HCT116-MTAP-knockout (−/−) cells, IC50 value, read-out: Tumor cell 5-day relative growth inhibition (HCT116-MTAP−/−)
[13] = IC50 score, read-out: Tumor cell 5-day relative growth inhibition (DOHH-2) (nM), score
[14] = IC50 value, read-out: Tumor cell 5-day relative growth inhibition (DOHH-2)
[15] = IC50 score class, read-out: Cell 96 h SDMA Inhibition (HCT116-MTAP−/−) (score)
[16] = read-out: Cell 96 h SDMA Inhibition (HCT116-MTAP−/−)
[17] = IC50 score class, read-out: MAT2A Inhibition (score)
[18] = HCT116-MTAP wild-type (+/+) cells, IC50 score, read-out: Tumor cell 5-day relative growth inhibition (HCT116-MTAP+/+) (nM), score
[19] = HCT116-MTAP wild-type (+/+) cells, IC50 value, read-out: Tumor cell 5-day relative growth inhibition (HCT116-MTAP+/+)
[20] = IC50 score, read-out: Tumor cell 5-day relative growth inhibition (Hut-78) (nM), score
[21] = IC50 value, read-out: Tumor cell 5-day relative growth inhibition (Hut-78)

Row | IC50 [1, 9] [nM] | IC50 [1, 10] [nM] | IC50 [2, 11] [nM] | IC50 [2, 12] [nM] | IC50 (DOHH-2 cell strain; [13]) [nM] | IC50 (DOHH-2 cell strain; [14]) [nM] | IC50 [3, 15] [nM] | AUC ([4]; IV 1 mg/kg) [µM·h] | bioavailability ([4]; IV 1 mg/kg, PO 5 mg/kg) [%] | half-life ([4]; IV 1 mg/kg) [h] | AUC ([4]; PO 5 mg/kg) [µM·h] | half-life ([4]; PO 5 mg/kg) [h] | IC50 [3, 16] [nM] | IC50 [5, 17] [nM] | IC50 ([5]; read-out: MAT2A Inhibition) [nM] | clearance ([4]; IV 1 mg/kg) [mL/min/kg] | IC50 [6, 18] [nM] | IC50 [6, 19] [nM] | IC50 (Hut-78 cell strain; [20]) [nM] | IC50 (Hut-78 cell strain; [21]) [nM] | Structure (SMILES) | further results
1 | > 3000 | 4280 | < 500 | 228 | 500 to 2000 | 940 | < 200 | 7.81 | 67 | 0.08 | 26 | 0.97 | – | – | – | – | – | – | – | – | CCn1cc2c(n1)c(=O)n(-c1cccnc1)c1cc(Cl)ccc21 [Compound B3] | –
2 | > 3000 | 9300 | – | – | ≥ 2000 | – | 200 to 1000 | 2.5 | 68 | 0.62 | 7.95 | 2.1 | 782 | < 100 | 38.8 | 21.7 | – | – | – | – | CCn1cc2c(n1)c(=O)n(-c1cccc(F)c1)c1cc(Cl)ccc21 [Compound B4] | –
3 | 200 to 1000 | 342 | < 500 | 75 | < 500 | 444 | < 200 | 7.6 | 60 | 1.7 | 7.6 | 3.3 | 30.5 | – | – | 16 | < 500 | 279 | – | – | COc1ccc(Cn2cc3c(n2)c(=O)n(-c2cccnc2)c2cc(Cl)ccc32)cc1 [Compound B28] | –
4 | > 3000 | 5140 | < 500 | 119 | 500 to 2000 | 880 | < 200 | – | – | – | – | – | 63.5 | < 100 | 29.3 | – | 500 to 2000 | 1730 | < 500 | 81.8 | Cn1ccc(Cn2cc3c(n2)c(=O)n(-c2cccnc2)c2cc(Cl)ccc32)n1 [Compound B48] | –
5 | 200 to 1000 | 480 | < 500 | 138 | 500 to 2000 | 640 | < 200 | – | – | – | – | – | 76.9 | – | – | – | 500 to 2000 | 1680 | – | – | Cn1cc2c(n1)c(=O)n(-c1cccnc1)c1nc(C(F)(F)F)ccc21 [Compound B72] | AUC ([7]; IV 2 mg/kg): 7.43 µM·h; clearance ([7]; IV 2 mg/kg): 12.8 mL/min/kg; half-life ([7]; IV 2 mg/kg): 0.78 h; Vd ([7]; IV 2 mg/kg, read-out: Vz): 0.9 L/kg; AUC ([7]; PO 10 mg/kg): 65 µM·h; half-life ([7]; PO 10 mg/kg): 0.95 h; IC50 (hERG potassium current): > 30000 nM
6 | 200 to 1000 | 396 | – | – | < 500 | 390 | < 200 | – | – | – | – | – | 32.8 | < 100 | 43.1 | – | – | – | < 500 | 87.8 | Cc1ncccc1-n1c(=O)c2nn(C)cc2c2ccc(OC(F)(F)F)cc21 [Compound B77] | –
7 | 200 to 1000 | 861 | – | – | 500 to 2000 | 654 | < 200 | – | – | – | – | – | 54.3 | < 100 | 27.8 | – | – | – | < 500 | 140 | Cn1cc2c(n1)c(=O)n(-c1cccc(O)c1)c1cc(C(F)(F)F)ccc21 [Compound B150] | –
8 | – | – | ≥ 2000 | > 10000 | – | – | – | – | – | – | – | – | – | < 100 | 99.4 | – | ≥ 2000 | > 10000 | – | – | Cn1cc2c(n1)c(=O)n(-c1ccc(OC(F)F)cc1)c1nc(C(F)(F)F)ccc21 [Compound B188] | FaSSIF (pH = 6.5) (μg/mL) [8]: 7.4 μg/mL
9 | > 3000 | > 10000 | – | – | – | – | < 200 | 21 | 116 | 14 | 128 | 11.6 | 4.3 | < 100 | 6 | 2 | – | – | – | – | O=c1c2n[nH]cc2c2cc(F)c(Cl)cc2n1-c1cccnc1C1CC1 [Compound B425] | IC50 ([2]; HCT116-MTAP−/− cells, IC50 class score, read-out: Tumor cell 5-day relative growth inhibition (HCT116-MTAP−/−) (nM), score): < 500 nM; IC50 ([2]; HCT116-MTAP−/− cells, read-out: Tumor cell 5-day relative growth inhibition (HCT116-MTAP−/−)): 260 nM; IC50 ([6]; HCT116-MTAP+/+ cells, IC50 class score, read-out: Tumor cell 5-day relative growth inhibition (HCT116-MTAP+/+) (nM), score): ≥ 2000 nM; IC50 ([6]; HCT116-MTAP+/+ cells, read-out: Tumor cell 5-day relative growth inhibition (HCT116-MTAP+/+)): > 10000 nM
